Experimental findings from PubChem BioAssay (NCI) are described below.

Structures are written as SMILES.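 48-hour exposure; five concentrations; linearly interpolated endpoints. GI50 = concentration required for 50% inhibition of growth. TGI: total growth inhibition.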

Test systems include A498 renal; A549 NSCLC; COLO 205 colon; HS 578T breast; LOX IMVI melanoma; MDA-MB-231 breast; OVCAR-5 ovarian; PC-3 prostate; T-47D breast; U251 CNS.
Holding throughout (assay): DTP human tumour cell line panel, 48 h

The term GI50 denotes the concentration at which growth is held to half of that of the control. As usually defined, the TGI is the concentration giving total growth inhibition. A low value points to more potent growth arrest. Regarding `NNc1c2ccccc2nc2ccccc12`, the GI50 in the assay on A498 renal was 1.43 µM; with A549 NSCLC it was 5.29 µM; in the assay on COLO 205 colon, 4.63 µM; in the assay on HS 578T breast it was 16 µM; in the assay with LOX IMVI melanoma, 3.62 µM; with MDA-MB-231 breast it was 10.7 µM. The GI50 in the assay with OVCAR-5 ovarian was 15.8 µM; with PC-3 prostate it was 2.34 µM; in the assay on T-47D breast, 6.08 µM; in the assay on U251 CNS, 4.89 µM. Also, the TGI in the assay with A498 renal is 17.5 µM; in the assay on A549 NSCLC, above 100 µM; with COLO 205 colon it was 18.3 µM; in the assay with HS 578T breast it was above 100 µM; in the assay on LOX IMVI melanoma, 22.4 µM; with MDA-MB-231 breast, 48.6 µM. Further, the TGI in the assay on OVCAR-5 ovarian turned out to be 54.1 µM; in the assay on PC-3 prostate, 37.3 µM; in the assay on T-47D breast, 73.4 µM; in the assay on U251 CNS, 40.6 µM.

As for `O=C(NN1C(=O)CSC1c1ccc(F)cc1)C(O)c1ccccc1` (stereo not given), the GI50 is above 100 µM in the assay with A498 renal; 90.9 µM in the assay with A549 NSCLC; above 100 µM in the assay on COLO 205 colon; above 100 µM with HS 578T breast; above 100 µM in the assay with LOX IMVI melanoma; 67.6 µM with MDA-MB-231 breast. Besides, the GI50 with OVCAR-5 ovarian was above 100 µM; in the assay on PC-3 prostate, 76.8 µM; with T-47D breast it was 59.5 µM; in the assay on U251 CNS it was 97.4 µM. The TGI in the assay with A498 renal, in the assay with A549 NSCLC, with COLO 205 colon, with HS 578T breast, with LOX IMVI melanoma and in the assay with MDA-MB-231 breast was above 100 µM each time. The TGI in the assay on OVCAR-5 ovarian, with PC-3 prostate, with T-47D breast and in the assay with U251 CNS was above 100 µM throughout.

Turning to `COc1ccc(-c2ccc(/C=N/n3c(COc4ccccc4Cl)n[nH]c3=S)o2)c([N+](=O)[O-])c1`, the GI50 in the assay on A498 renal is 14.4 µM; with A549 NSCLC, 30.4 µM; with COLO 205 colon it was 40.2 µM; in the assay on HS 578T breast, 32.5 µM; with LOX IMVI melanoma it was 17.6 µM; in the assay with MDA-MB-231 breast, 46.7 µM. For the same compound, the GI50 was 44.9 µM in the assay on OVCAR-5 ovarian, 23.6 µM with PC-3 prostate, 21.8 µM with T-47D breast and 22 µM in the assay with U251 CNS. Further, the TGI in the assay with A498 renal is 40.6 µM; in the assay with A549 NSCLC, 87.9 µM; in the assay on COLO 205 colon it was above 100 µM; in the assay with HS 578T breast, 98.7 µM; with LOX IMVI melanoma it was 45.8 µM; in the assay with MDA-MB-231 breast it was above 100 µM. Besides, the TGI with OVCAR-5 ovarian was above 100 µM; with PC-3 prostate it was 79.4 µM; in the assay on T-47D breast, 86.2 µM; with U251 CNS it was 57.5 µM.

For the compound `Nc1n[nH]c2ccc([C@@H]3Nc4cc5[nH]ncc5cc4[C@H]4C5CCC(C5)[C@@H]34)cc12` (stereo not given in full), the GI50 is 0.174 µM in the assay with A498 renal; 0.584 µM in the assay on A549 NSCLC; 0.424 µM with COLO 205 colon; 0.369 µM in the assay on HS 578T breast; 0.659 µM in the assay on LOX IMVI melanoma; 0.764 µM in the assay on MDA-MB-231 breast. In addition, the GI50 in the assay with OVCAR-5 ovarian was 0.565 µM; with PC-3 prostate, 0.365 µM; with T-47D breast it was 0.498 µM; in the assay on U251 CNS it was 0.43 µM. The TGI with A498 renal was 0.822 µM; with A549 NSCLC it was above 100 µM; with COLO 205 colon it was above 40.6 µM; in the assay on HS 578T breast it was above 100 µM; in the assay on LOX IMVI melanoma, 74.8 µM; with MDA-MB-231 breast it was 98.1 µM. The TGI is above 80.9 µM in the assay with OVCAR-5 ovarian, above 41.9 µM in the assay with PC-3 prostate, 79.8 µM in the assay on T-47D breast and above 58 µM in the assay on U251 CNS.

`O=C(Nc1ccccc1Cl)c1cccc(NC2=C(Cl)C(=O)N(Cc3ccccc3)C2=O)c1`: the GI50 was 24.6 µM in the assay on A498 renal; 49.3 µM in the assay with A549 NSCLC; 51.2 µM in the assay with COLO 205 colon; 30.2 µM with HS 578T breast; 7.96 µM in the assay on LOX IMVI melanoma; 17.1 µM with MDA-MB-231 breast. The GI50 in the assay with OVCAR-5 ovarian was above 100 µM; in the assay on PC-3 prostate it was 18.9 µM; in the assay on T-47D breast, above 100 µM; with U251 CNS, 21 µM. Besides, the TGI is 89.9 µM in the assay on A498 renal; above 100 µM in the assay with A549 NSCLC; above 100 µM with COLO 205 colon; above 100 µM with HS 578T breast; above 100 µM in the assay with LOX IMVI melanoma; 69.7 µM in the assay on MDA-MB-231 breast. Further, the TGI in the assay with OVCAR-5 ovarian was above 100 µM; in the assay with PC-3 prostate, 99 µM; in the assay with T-47D breast it was above 100 µM; with U251 CNS, above 100 µM.

Turning to `OCc1ccc(N2CCCC2)cc1Cl`, the GI50 with A498 renal is 0.147 µM; in the assay with A549 NSCLC it was 23.2 µM; in the assay with COLO 205 colon, 2.01 µM; with HS 578T breast, above 50 µM; in the assay on LOX IMVI melanoma, above 86.9 µM; in the assay with MDA-MB-231 breast it was above 79.4 µM. Also, the GI50 in the assay with OVCAR-5 ovarian was 0.148 µM; with PC-3 prostate it was above 84.7 µM; with T-47D breast it was 0.538 µM; in the assay on U251 CNS, 5.52 µM. Also, the TGI in the assay with A498 renal was 0.289 µM; in the assay with A549 NSCLC it was above 100 µM; with COLO 205 colon, 5.11 µM; in the assay on HS 578T breast, above 100 µM; in the assay with LOX IMVI melanoma it was above 100 µM; in the assay with MDA-MB-231 breast, above 100 µM. The concentration for total growth inhibition (TGI) is 0.498 µM in the assay on OVCAR-5 ovarian, above 100 µM in the assay with PC-3 prostate, 2.88 µM in the assay with T-47D breast and above 60.8 µM in the assay with U251 CNS.

As for `Cc1cc(NC(=O)c2cnc(N3CCN(CCOCCOCCOCCOCCC(=O)N[C@H](C(=O)N4C[C@H](O)C[C@H]4C(=O)N[C@@H](C)c4ccc(-c5scnc5C)cc4)C(C)(C)C)CC3)cn2)c2ncccc2c1`, the GI50 in the assay on A498 renal was 5.06 µM; with A549 NSCLC, 6.19 µM; with COLO 205 colon, 5.11 µM; with HS 578T breast, 2.59 µM; in the assay on LOX IMVI melanoma, 1.84 µM; in the assay with MDA-MB-231 breast it was 1.98 µM. Also, the GI50 in the assay on OVCAR-5 ovarian was 14.9 µM; with PC-3 prostate, 2.85 µM; in the assay with T-47D breast it was 3.03 µM; with U251 CNS it was 2.74 µM. Moreover, the TGI in the assay on A498 renal was 29 µM; in the assay on A549 NSCLC it was above 100 µM; with COLO 205 colon, above 100 µM; in the assay with HS 578T breast it was 9.17 µM; in the assay with LOX IMVI melanoma, 3.39 µM; with MDA-MB-231 breast, 3.98 µM. Further, the TGI in the assay on OVCAR-5 ovarian amounted to 50.8 µM; in the assay on PC-3 prostate it was 10.4 µM; in the assay with T-47D breast, 17.9 µM; in the assay with U251 CNS, 7.92 µM.

With `COc1cc2c(c(OC)c1OC)-c1c(cc3c(c1OC)OCO3)CC(C)C(C)(O)C2OC(=O)c1ccccc1` (stereo not given), the TGI in the assay on A498 renal was above 100 µM; in the assay on A549 NSCLC, above 100 µM; with COLO 205 colon it was 53.5 µM; with HS 578T breast it was above 100 µM; with LOX IMVI melanoma it was above 100 µM; in the assay on MDA-MB-231 breast, 57.8 µM. The TGI in the assay with OVCAR-5 ovarian, with PC-3 prostate, in the assay with T-47D breast and in the assay with U251 CNS was above 100 µM throughout.
